The record followed here is US7038077B2, “Prodrugs of excitatory amino acids” (Eli Lilly and Company, priority 2001, dated 2006).

Usually melting point stands for the temperature, or range, at which the solid turns liquid.

`Cl.N[C@@]1(C(=O)OCc2ccccc2C(F)(F)F)CC[C@H]2[C@H](C(=O)O)[C@H]21`: the melting point was > 175 °C (dec.). `Cl.N[C@@]1(C(=O)OCc2ccc(Cl)cc2Cl)CC[C@H]2[C@H](C(=O)O)[C@H]21` [Example 29, (1S,2S,5R,6S)-2-Amino-bicyclo[3.1.0]hexane-2,6-dicarboxylic acid 2-(2′,4′-dichloro)benzyl ester hydrochloride] gave a melting point of 135 to 137 °C. Under `Cl.N[C@@]1(C(=O)OCc2ccccc2F)CC[C@H]2[C@H](C(=O)O)[C@H]21` [Example 31, (1S,2S,5R,6S)-2-Amino-bicyclo[3.1.0]hexane-2,6-dicarboxylic acid 2-(2′-fluoro)benzyl ester hydrochloride] stands > 220 °C (dec.). Under `Cl.N[C@@]1(C(=O)OCc2cc(Cl)ccc2Cl)CC[C@H]2[C@H](C(=O)O)[C@H]21` [Example 33, (1S,2S,5R,6S)-2-Amino-bicyclo[3.1.0]hexane-2,6-dicarboxylic acid 2-(2′,5′-dichloro)benzyl ester hydrochloride] stands 173 to 175 °C; under `Cl.N[C@@]1(C(=O)OCc2ccccc2Br)CC[C@H]2[C@H](C(=O)O)[C@H]21` [Example 34, (1S,2S,5R,6S)-2-Amino-bicyclo[3.1.0]hexane-2,6-dicarboxylic acid 2-(2′-bromo)benzyl ester hydrochloride], 190 to 191 °C. `Cl.N[C@@]1(C(=O)OCc2cc(F)cc(F)c2)CC[C@H]2[C@H](C(=O)O)[C@H]21` [Example 35, (1S,2S,5R,6S)-2-Amino-bicyclo[3.1.0]hexane-2,6-dicarboxylic acid 2-(3′,5′-difluoro)benzyl ester hydrochloride] gave a melting point of 98 to 99 °C. Under `Cc1ccc(C)c(COC(=O)[C@]2(N)CC[C@H]3[C@H](C(=O)O)[C@H]32)c1.Cl` [Example 41, (1S,2S,5R,6S)-2-Amino-bicyclo[3.1.0]hexane-2,6-dicarboxylic acid 2-(2′,5′-dimethyl)benzyl ester hydrochloride] stands 70 °C (dec.); under `COc1ccccc1COC(=O)[C@]1(N)CC[C@H]2[C@H](C(=O)O)[C@H]21` [Example 48, (1S,2S,5R,6S)-2-Amino-bicyclo[3.1.0]hexane-2,6-dicarboxylic acid 2-(2′-methoxy)benzyl ester], 195 °C (dec.); under `N[C@@]1(C(=O)OCc2cccc(F)c2)CC[C@H]2[C@H](C(=O)O)[C@H]21` [Example 54, (1S,2S,5R,6S)-2-Amino-bicyclo[3.1.0]hexane-2,6-dicarboxylic acid 2-(3′-fluoro)benzyl ester], 225 °C (dec.).
